{"source": "patent US6544994B2", "about": "“Pharmaceutical preparation for treating or preventing cardiovascular or neurological disorders by modulating of the activity of nitric oxide synthase” (Eprov AG, priority 2000, dated 2003)", "key": {"[1]": {"assay": "Competitive superoxide trapping (CST) with DEPMPO in HX/XO system, EPR", "type": "biochemical", "conditions": "for k/kd, reaction rate with superoxide relative to reference spin trap DEPMPO / k, reaction rate with superoxide: pH 7.4, 37° C.; for k, reaction rate with superoxide: based on kd=80 (Ms)^−1; for superoxide scavenging, times less potent/slower than ascorbic acid: relative to ascorbic acid", "protocol": "The EPR spectra were recorded at 37° C. on a modified Bruker ESP 300. Spin trap experiments were performed with both HX/XO and eNOS. For HX/XO the solution contained 0.5 mM hypoxanthine, 12.5 mU/ml xanthine oxidase and 50 mM DEPMPO in phosphate buffer (pH 7.4). The eNOS assay contained 250 nM eNOS dimers (0.065 mg protein/ml), 0.5 mM NADPH, 10 μM L-arginine, 1 mM CaCl2, 300 U/ml catmodulin and 50 mM DEPMPO in phosphate buffer (pH 7.4).\nThe reaction rates with superoxide are given by k for the tested substance and kd for the reference compound DEPMPO respectively."}, "eNOS [2]": {"target": "T1, eNOS (Bos taurus, UniProt P29473)", "assay": "Superoxide production by eNOS, DEPMPO spin trap EPR"}, "eNOS [3]": {"target": "T1, eNOS", "assay": "NO-production by eNOS, [3H]arginine to [3H]citrulline conversion", "type": "biochemical, bovine", "design": "made in house; host or cells: E. coli", "conditions": "100 μM final", "protocol": "5-methyl-(6 S)-tetrahydrofolic acid, and its stereoisomer, 5-methyl-(6R)-tetrahydrofolic acid were used in purities>99.8%. The spin trap, 5-diethoxy-phosphoryl-5-methyl-1-pyrroline-N-oxide (DEPMPO) and all other used chemicals are commercially available.\nNOS activity was determined by quantifying the conversion of L-[2,3,4.5-^3H]arginine into L-[2,3,4,5-^3H]-citrulline. […] All measurements were performed in triplicate. After correction for nonspecific activity, eNOS activity was calculated from the percent conversion of [^3H]-arginine into [^3H]-citrulline and expressed as nmoles per mg protein per min."}, "[4]": {"system": "microvascular endothelial bEND3 cells", "assay": "NO production by endothelial cells, nitrite content in supernatant", "type": "cell-based", "conditions": "preincubation 24 hours; for acetylcholine-induced nitrite production: 5-methyltetrahydrofolic acid 1 and 10 μM, sepiapterin 100 μM, p<0.05 vs. saline", "protocol": "The NO production by endothelial cells was assessed by quantification of the nitrite content in the supernatant with a commercially available fluorimetric kit (Cayman Chemicals). Acetylcholine-induced NO production is presented as the difference between stimulated minus the unstimulated nitrite content."}, "xanthine oxidase (XO)": {"target": "xanthine oxidase (XO) (Homo sapiens, UniProt P47989)", "sequence (P47989 whole entry, species assumed)": "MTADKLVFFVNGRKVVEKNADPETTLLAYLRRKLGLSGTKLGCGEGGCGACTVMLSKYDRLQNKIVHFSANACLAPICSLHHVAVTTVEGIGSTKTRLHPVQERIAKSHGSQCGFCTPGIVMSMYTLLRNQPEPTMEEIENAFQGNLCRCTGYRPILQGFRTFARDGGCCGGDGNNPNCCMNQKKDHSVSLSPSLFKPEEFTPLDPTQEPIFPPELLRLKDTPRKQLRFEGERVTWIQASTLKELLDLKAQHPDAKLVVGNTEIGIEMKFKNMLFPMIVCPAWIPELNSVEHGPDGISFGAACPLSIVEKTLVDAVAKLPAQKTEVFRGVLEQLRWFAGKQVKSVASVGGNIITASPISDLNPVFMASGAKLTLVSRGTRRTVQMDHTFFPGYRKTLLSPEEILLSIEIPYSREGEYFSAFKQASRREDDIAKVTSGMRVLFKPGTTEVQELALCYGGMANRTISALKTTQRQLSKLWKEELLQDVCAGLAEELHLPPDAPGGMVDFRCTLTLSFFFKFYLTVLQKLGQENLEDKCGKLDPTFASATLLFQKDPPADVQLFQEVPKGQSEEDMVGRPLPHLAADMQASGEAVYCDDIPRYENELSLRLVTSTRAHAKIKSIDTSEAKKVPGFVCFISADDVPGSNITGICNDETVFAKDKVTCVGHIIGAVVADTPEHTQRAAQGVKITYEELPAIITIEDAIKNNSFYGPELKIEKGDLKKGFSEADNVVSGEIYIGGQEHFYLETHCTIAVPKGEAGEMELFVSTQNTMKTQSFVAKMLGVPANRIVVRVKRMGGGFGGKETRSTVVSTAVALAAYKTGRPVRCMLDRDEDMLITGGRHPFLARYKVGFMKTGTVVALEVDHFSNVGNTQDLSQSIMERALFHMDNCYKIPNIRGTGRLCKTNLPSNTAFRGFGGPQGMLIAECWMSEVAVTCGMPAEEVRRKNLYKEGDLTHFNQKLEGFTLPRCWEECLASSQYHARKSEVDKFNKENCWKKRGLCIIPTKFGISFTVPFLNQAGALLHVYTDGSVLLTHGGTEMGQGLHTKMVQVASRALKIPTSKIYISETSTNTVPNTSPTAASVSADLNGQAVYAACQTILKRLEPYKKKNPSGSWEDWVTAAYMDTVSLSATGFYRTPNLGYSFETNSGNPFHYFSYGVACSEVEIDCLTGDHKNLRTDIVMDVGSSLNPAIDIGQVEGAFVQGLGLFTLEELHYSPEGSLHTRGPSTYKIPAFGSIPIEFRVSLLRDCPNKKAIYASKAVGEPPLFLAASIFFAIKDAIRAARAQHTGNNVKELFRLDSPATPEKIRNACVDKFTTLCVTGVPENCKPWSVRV", "description": "Assessment of urate levels (assessed with a uricase-hydrogen peroxide assay) is a standard method to determine enzymatic activity of XO. However, reductive substance, like vitamin C or NUHF, are known to interfere with the urate determination."}, "[5]": {"conditions": "cited from earlier work"}, "[6]": {"conditions": "cited from earlier work", "remark": "listed apart in the source"}, "[7]": {"conditions": "pterin-repleted eNOS, p<0.05 vs. BH4 alone"}}, "note": "Where two headings read alike, the source gives them in different places."}
{"smiles": "CN1c2c(nc(N)[nH]c2=O)NC[C@@H]1CNc1ccc(C(=O)N[C@@H](CCC(=O)O)C(=O)O)cc1", "note": "[5-methyl-(6 S)-tetrahydrofolic acid]", "values": [{"measurement": "k/kd, reaction rate with superoxide relative to reference spin trap DEPMPO", "setting": "[1]; HX/XO", "result": "about 175"}, {"measurement": "k/kd, reaction rate with superoxide relative to reference spin trap DEPMPO", "setting": "[1]; HX/XO, listed as L-MTHF", "result": 150}, {"measurement": "k, reaction rate with superoxide", "setting": "[1]", "result": 12000, "unit": "M/s"}, {"measurement": "superoxide scavenging, times less potent/slower than ascorbic acid", "setting": "[1]", "result": "about 20 fold"}, {"measurement": "effect on rate of superoxide production by pterin-free eNOS", "setting": "eNOS [2]; pterin-free eNOS", "result": "does not affect the rate of superoxide production"}, {"measurement": "radical adduct formation", "setting": "eNOS [2]; pterin-free eNOS, 25 μM", "result": "does not cause significant changes in radical adduct formation"}, {"measurement": "rate of DEPMPO adduct formation", "setting": "eNOS [2]; pterin-repleted eNOS", "result": "very strong reduction in the rate of DEPMPO adduct formation"}, {"measurement": "NO production", "setting": "eNOS [3]; pterin-free eNOS", "result": "no significant effect on NO production"}, {"measurement": "NO production", "setting": "eNOS [3]; [7]", "result": "significant increase in NO production"}, {"measurement": "acetylcholine-induced nitrite production", "setting": "[4]", "result": "significant-further increase in acetylcholine-induced nitrite production"}, {"measurement": "urate level after 60 minutes of incubation", "setting": "xanthine oxidase (XO); 50 μM added at the beginning of the incubation, basal 128±20 μM", "result": "48.7 ± 1.7", "unit": "µM"}, {"measurement": "urate level after 60 minutes of incubation", "setting": "xanthine oxidase (XO); 50 μM added at the end of the incubation, just prior to urate assessment", "result": "49.9 ± 1.9", "unit": "µM"}]}
{"smiles": "CN1c2c(nc(N)[nH]c2=O)NC[C@H]1CNc1ccc(C(=O)N[C@@H](CCC(=O)O)C(=O)O)cc1", "note": "[5-methyl-(6R)-tetrahydrofolic acid]", "values": [{"measurement": "k/kd, reaction rate with superoxide relative to reference spin trap DEPMPO", "setting": "[1]; HX/XO", "result": "about 175"}, {"measurement": "k/kd, reaction rate with superoxide relative to reference spin trap DEPMPO", "setting": "[1]; HX/XO, listed as D-MTHF", "result": 150}, {"measurement": "k, reaction rate with superoxide", "setting": "[1]", "result": 12000, "unit": "M/s"}, {"measurement": "superoxide scavenging, times less potent/slower than ascorbic acid", "setting": "[1]", "result": "about 20 fold"}, {"measurement": "effect on rate of superoxide production by pterin-free eNOS", "setting": "eNOS [2]; pterin-free eNOS", "result": "does not affect the rate of superoxide production"}, {"measurement": "rate of DEPMPO adduct formation", "setting": "eNOS [2]; pterin-repleted eNOS", "result": "very strong reduction in the rate of DEPMPO adduct formation"}, {"measurement": "NO production", "setting": "eNOS [3]; pterin-free eNOS", "result": "no significant effect on NO production"}, {"measurement": "NO production", "setting": "eNOS [3]; [7]", "result": "significant increase in NO production"}]}
{"smiles": "CN1c2c(nc(N)[nH]c2=O)NCC1CNc1ccc(C(=O)N[C@@H](CCC(=O)O)C(=O)O)cc1", "note": "(stereo partly shown) [5-methyltetrahydrofolic acid, 5-methyl-5,6,7,8-tetrahydrofolic acid]", "values": [{"measurement": "superoxide scavenging, times less potent/slower than ascorbic acid", "setting": "[1]", "result": "about 20 fold"}, {"measurement": "amount of superoxide adducts", "setting": "eNOS [2]; partially BH4-repleted eNOS, 25 μM", "result": "substantial reduction in the amount of superoxide adducts"}, {"measurement": "factor by which superoxide production by eNOS is reduced", "setting": "eNOS [2]; pterin-repleted eNOS, 50 μM, estimated from figure", "result": 2, "unit": "fold"}, {"measurement": "systemic plasma concentrations of 5-methyltetrahydrofolic acid", "setting": "[5]; intra-arterial infusion", "result": 250, "unit": "nM"}, {"measurement": "nitrite release", "setting": "[4]; unstimulated endothelial cells", "result": "did not affect nitrite release"}, {"measurement": "effect on rate of urate production by XO", "setting": "xanthine oxidase (XO)", "result": "does not affect the rate of urate production"}]}
{"smiles": "N=C(N)NCCC[C@H](N)C(=O)O", "note": "[arginine, L-arginine]", "values": [{"measurement": "k/kd, reaction rate with superoxide relative to reference spin trap DEPMPO", "setting": "[1]; HX/XO", "result": "< 10^−2"}, {"measurement": "effect on formation of DEPMPO adducts", "setting": "[1]; HX/XO, up to 100 mM", "result": "did not affect the formation of DEPMPO adducts"}, {"measurement": "k, reaction rate with superoxide", "setting": "[1]", "result": "neglibile"}]}
{"smiles": "O=C1O[C@H]([C@@H](O)CO)C(O)=C1O", "note": "[ascorbic acid, reference compound]", "values": [{"measurement": "k/kd, reaction rate with superoxide relative to reference spin trap DEPMPO", "setting": "[1]; HX/XO", "result": 4400}, {"measurement": "k, reaction rate with superoxide", "setting": "[1]", "result": 350000, "unit": "M/s"}, {"measurement": "k, reaction rate with superoxide, literature value", "setting": "[6]", "result": 270000, "unit": "M/s"}]}
{"smiles": "Nc1nc2ncc(CNc3ccc(C(=O)N[C@@H](CCC(=O)O)C(=O)O)cc3)nc2c(=O)[nH]1", "note": "[folic acid, reference compound]", "values": [{"measurement": "systemic plasma concentrations of 5-methyltetrahydrofolic acid", "setting": "[5]; standard oral suppletion of folic acid 5 mg p.o.", "result": "≤ 150", "unit": "nM"}]}
{"smiles": "C[C@H](O)C(=O)C1=Nc2c(nc(N)[nH]c2=O)NC1", "note": "[sepiapterin, reference compound]", "values": [{"measurement": "acetylcholine-induced nitrite production", "setting": "[4]", "result": "significant-further increase in acetylcholine-induced nitrite production"}]}
